Assay [1] addresses His-tagged Cereblon/DDB1 complex (Homo sapiens (Human), UniProt Q96SW2). The experiment in a line: Cereblon Binding Assay (AlphaLISA Human Cereblon Binding Kit, competition). To be noted: 10 μM top dose, biotin-labeled ligand competition; read-out: CRBN IC50. How it is done:
Cereblon binding was measured in vitro using an AlphaLISA® Human Cereblon Binding Kit (PerkinElmer, Waltham, MA) according to the manufacturer's protocol (“Alpha” refers to Amplified Luminescent Proximity Homogeneous Assay). In this assay, donor beads and acceptor beads come into proximity through ligand binding to CRBN protein. Excitation of the donor beads provokes the release of singlet oxygen that triggers a cascade of energy transfer reactions to the acceptor beads, resulting in a sharp peak in light emission at 615 nm.
Specifically, nickel chelate acceptor beads (PerkinElmer AL108M) were used to capture a 6XHIS-tagged CRBN protein, and streptavidin-coated donor beads (PerkinElmer 6760002) were used to capture 50 nM biotinylated ligand. Each well included the following: sample or control; HIS-tagged CRBN protein; biotinylated ligand; nickel chelate acceptor beads; and streptavidin donor beads.
Competition Assay: Test compounds in 100% dimethyl sulfoxide were plated onto white, low volume 384 well plates (PerkinElmer Proxiplate 384 plus # 6008289) using an Labcyte Echo acoustic dispenser, in an 11-point dose curve and 3-fold dilution scheme. […] Plates were incubated for 30 minutes at room temperature.
Detection: 10 μL detection reagents were added in low light conditions containing nickel chelate acceptor beads and streptavidin donor beads (Perkin Elmer 6760002), resulting in a final concentration 20 ng/ml. Plates were incubated 1 hour and read on a PerkinElmerTM Envision™ plate reader (680 nm excitation and […] settings). The IC50 of each compound was determined by calculating percent inhibition from no drug and no protein controls, and the Ki of each compound was calculated using the Cheng-Prusoff transformation. From the IC50 values were determined. The IC50 values are reported in Table 2 in the CRBN IC50 (nM) column.
On the technique in general: Alpha assays give light when donor and acceptor beads are brought close together.

For assay [2], the target named is Human BTK enzyme, wild-type (Homo sapiens (Human), UniProt Q06187). The assay can be described thus: BTK Screening: Btk kinase activity, electrophoretic mobility shift assay (MSA). It counts as biochemical. To be noted: 0.5 nM BTK enzyme, 50 μM ATP, 15 minutes pre-incubation, 3 hours at 25° C. As to the method: Btk kinase activity was measured in vitro using an electrophoretic mobility shift assay (MSA). The ability of Btk to phosphorylate a fluorescent peptide substrate (FAM-GEEPLYWSFPAKKK-NH2) was measured. The kinase reactions were assembled in a total volume of 25 μL per well in 384 well plates. The following was added to each well: compound buffer (or control); enzyme buffer; and substrate buffer, as further described below.
Specifically the following was added: (1) compound buffer or control: 5μL of 5× compound buffer [(5× compound buffer comprised of: 1× Master Buffer, X μM test compound in 5% dimethyl sulfoxide; (2× Master Buffer comprised of 200 mM HEPES, pH7.5, 0.2% BSA, and 0.02% Triton X-100)]; and (2) enzyme buffer: 10 μL of 2.5× enzyme buffer (1× Master Buffer, 12.5 mM MgCl2, 2.5 mM DTT, 25 μM sodium orthovanadate, 25 μM beta-glycerophosphate, and 1.25 nM BTK enzyme). Human BTK enzyme Nanosyn-293HEK, wild-type, available from Nanosyn, Santa Clara, CA). Enzyme and compound were pre-incubated for 15 minutes. Additionally, the following was added: (3) substrate buffer: 10 μL of 2.5× substrate buffer (1× Master Buffer, […], and 2.5 μM of the peptide substrate FAM). Each plate was incubated at 25° C. for 3 hours. The reaction was terminated by adding to each well: 45 μL of 1.55× stop buffer (1× Master Buffer and 31 mM EDTA). The final reaction mixture was as follows: 100 mM HEPES, pH7.5; 0.1% BSA; 0.01% Triton X-100; 1 mM DTT; 5 mM MgCl2; 10 μM sodium orthovanadate; 10 μM beta-glycerophosphate; 50 μM ATP; 1% dimethyl sulfoxide (from compound); 1μM fluorescent peptide substrate and 0.5 nM BTK- enzyme. The terminated reactions were analyzed using a 12 channel LABCHIP® 3000 microfluidic detection instrument (available from Caliper Life Sciences, Waltham, MA). […] As substrate and product peptides were separated, two peaks of fluorescence were observed. Change in the relative fluorescence intensity of the substrate and product peaks was the parameter measured, reflecting enzyme activity. In the presence of an active compound, the ratio between product and substrate was altered. The signal of the product decreased, while the signal of the substrate increased. Capillary electrophoregrams (RDA acquisition files) were analyzed using HTS Well Analyzer software (available from Caliper Life Sciences, Waltham, MA).
Activity in each sample was determined as the product to sum ratio (PSR): P/(S+P), where P was the peak height of the product peptide and S was the peak height of the substrate peptide. For each compound, enzyme activity was measured at various concentrations (12 concentrations of compound spaced by 3× dilution intervals). Negative control samples (0% inhibition in the absence of an active compound) and positive control samples (100% inhibition, in the presence of 20 mM EDTA) were assembled in replicates of four and were used to calculate % inhibition values for each active compound at each concentration. Percent inhibition (Pinh) was determined using following equation: Pinh=(PSR0%−PSRinh)/(PSR0%−PSR100%)*100, where PSRinh was the product sum ratio in the presence of inhibitor, PSR0% was the average product sum ratio in the absence of active compound and PSR100% was the average product sum ratio in 100%-inhibition control samples.
The IC50 values of active compounds were determined by 4 parameter sigmoidal dose response model fitting of the inhibition curves (Pinh versus inhibitor concentration) using XLfit® 4 software (IDBS, Boston, MA). The IC50 values are reported in Table 2 in the BTK IC50 (nM) column.

What is called IC50 is the concentration needed to halve the response being measured. `C[C@@H](NC(=O)c1nc(C(C)(C)C)no1)c1ccc(-c2cc(Nc3ccc(N4CCN(CCc5ccc(N6CCC(=O)NC6=O)cc5)C[C@@H]4C)cn3)ncn2)cc1Cl` [Example 14, 3-tert-butyl-N-[(1R)-1-{2-chloro-4-[6-({5-[(2S)-4-{2-[4-(2,4-dioxo-1,3-diazinan-1-yl)phenyl]ethyl}-2-methylpiperazin-1-yl]pyridin-2-yl}amino)pyrimidin-4-yl]phenyl}ethyl]-1,2,4-oxadiazole-5-carboxamide]: the results for the concentration for half-maximal inhibition (IC50) in assay [1] and in assay [2] were 2330 nM and 0.053 nM, respectively.
For `Cc1cc(-c2cc(Nc3ccc(N4CCN(CCc5ccc(N6CCC(=O)NC6=O)cc5)C[C@@H]4C)cc3)ncn2)ccc1[C@@H](C)NC(=O)c1nc(C(C)(C)C)no1` [Example 18] the same measures were 1250 nM and 0.496 nM.
For `Cc1cc(-c2cc(Nc3ccc(CCN4CCN(c5ccc(N6CCC(=O)NC6=O)cc5)CC4)cn3)ncn2)ccc1[C@@H](C)NC(=O)c1nc(C(C)(C)C)no1` [Example 19] the same measures were no less than 10000 nM and 0.1 nM.

The values are drawn from patent US20240109877A1, “PYRIMIDINES FOR DEGRADING BRUTON'S TYROSINE KINASE” (AbbVie Inc., priority 2022, published 2024).
